Results taken from patent US20050272677A1, “Delivery of a substance to a pre-determined site” (priority 2002, published 2005).
Like-named read-outs stand apart in the source and are kept apart here.

How the values were obtained:
[1] = system: neurospheres (neural stem cells); assay: Ex vivo transfection of neurospheres with pEGFP-N1 lipoplexes; assay type: cell-based, mice; conditions: 4 hours incubation, read after two days
Description: Neural stem cells were isolated from the forebrain of mice embryos and cultured in the presence of epidermal growth factor (EGF) and fibroblast growth factor (FGF). In the presence of these growth factors, neural stem cells form neurospheres, clusters of cells that grow in suspension.
Prior to transfection of neurospheres, the spheres were immobilized on Labtek culture plates that were coated with poly-ornithine. Subsequently, neurospheres were incubated for 4 hours with SF-6/DOPE (1:1 molar ratio), SF-63, SF-80/DOPE (1:1 molar ratio), or Lipofectamine 2000 lipoplexes, containing plasmid DNA encoding Enhanced Green Fluorescent Protein (pEGFP-N1). After two days, the transfection efficiency was determined with fluorescence microscopy.

[2] = In vivo delivery of luciferase DNA complexed with Sunfish amphiphiles; design: species or system mouse; conditions: 24 hours; efficiency order SF-46>SF-36>SF-6>SF-30>SF-63
Description: Sunfish (SF) amphiphiles were tested and compared to DOTAP, a commercially available amphiphile (Avanti Polar Lipids). The used plasmid DNA codes for Luciferase, which is expressed upon transfection. Luciferase activity represents the efficiency of transfection. Liposomes were prepared by drying the Sunfish amphiphiles or DOTAP in glass tubes under a nitrogen flow followed by being under vacuum for one hour. The lipid film was resuspended in 20% sucrose by mixing and warming up for five minutes to 60° C. in a water bath. The liposomal suspension was then sonicated for three minutes. For lipoplexes formation, plasmid DNA (30 μg/mouse) diluted in 20% sucrose was added to the liposomes (450 nmol/mouse) under mixing. The lipoplexes were allowed to rest at room temperature for […] and were intravenously injected (150 μl) in male BALB/c mice. Organs (lungs, heart, liver, spleen and kidneys) were collected 24 hours after injection for analysis. Luciferase activity was measured in homogenates of the different organs and related to a standard curve obtained with purified recombinant Luciferase.

[3] = system: pB104 strain (MscL null E. coli); assay: Growth assay of MscL mutants on agar plates with or without IPTG; assay type: cell-based; design: key: ++++: growth equal to cells expressing wild-type MscL; growth is indicated by ++++ to −; growth is indicated by ++++ to −; growth is indicated by ++++ to −; −: an absence of growth; conditions: pB104 with Lac-inducible plasmid
Description: The constructs of the MscL-6His mutants were constructed using standard molecular biology techniques. The mutants were tested in the pB104 strain (MscL null E. coli) by a growth assay on agar plates with or without IPTG (K. Yoshimura et al., 1999, Biophys. J. 77:1960-1972).
The first phenotype (++) grows like the single G22S mutant.

[4] = system: MscL; conditions: spheroplasts
Description: Patch-clamp experiments on spheroplast allow quantitation of the tension sensitivity because of the presence of an internal control, which is the mechanosensitive channel of small conductance (MscS). […] For most clinical applications, it is important that the channel remains closed at pH values of 7.4.
Giant spheroplasts were prepared as described before and electrophysiological measurements were done by using symmetrical buffers, both in the bath and in the pipette. The gating threshold of MscL (or its mutant) is given as the ratio of the suction required to open MscL to that at which MscS opens.
Giant spheroplasts were prepared as described in P. Blount, et al., 1999, Methods Enzymol. 294:458-482.

[5] = molecular target: T1, MscL (Escherichia coli, UniProt P0A742); assay type: biochemical, E. coli
T1 sequence (P0A742 whole entry, looked up): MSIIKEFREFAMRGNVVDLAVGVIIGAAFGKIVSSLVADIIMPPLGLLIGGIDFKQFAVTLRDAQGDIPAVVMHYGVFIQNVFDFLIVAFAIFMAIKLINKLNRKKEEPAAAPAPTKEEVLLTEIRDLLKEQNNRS
Description: Results Overexpression and Purification of the MscL Channel Protein
Samples were prepared and calcein efflux was monitored as described elsewhere in Example 1.
300 μl of detergent-treated liposomes were gently mixed with 240 μl of 0.25 mg/ml purified MscL-mutant G22C in elution buffer containing 0.2% Triton X-100. The mixture was incubated at 60° C. for 45 minutes, followed by the addition of an equal volume (540 μl) of calcein-loading buffer, containing 200 mM calcein, 25 mM Tris, 1 mM EDTA, pH 8.0. After addition of 20 mg of Triton X-100-absorbing Bio-Beads SM-2, the mixture was gently agitated for one hour at room temperature. Subsequently, 80 mg Bio-Beads were added and incubated at 4° C. overnight under mild agitation. Samples were prepared for calcein efflux assay as described elsewhere.

[6] = system: MscL; conditions: pH 6; Yoshimura et al. 1999; cited from earlier work
[7] = system: pB104 strain (MscL null E. coli); assay: MTSET shock assay on agar plates with IPTG; assay type: cell-based; design: Growth −MTSET-shock: key to the marks not given beside the values
Description: The constructs of the G20C^Ll, V21C^Ll and G22C^Ec MscL-6His mutants were constructed using standard molecular biology techniques. The mutants were tested in pB104 strain (MscL null E. coli) by a MTSET shock assay on agar plates with IPTG (A. F. Batiza, et al., 2002, PNAS, 99:5643-5648).

Row | Molecule | transfection efficiency (GFP, fluorescence microscopy) [1] | gene expression (Luciferase) after intravenous injection of complexed DNA [2] | Growth on agar plates +IPTG ([3]; with IPTG) | Growth on agar plates −IPTG ([3]; without IPTG) | Gating threshold (ratio of activation pressure to that of MscS) ([4]; pH 5.85) | Gating threshold (ratio of activation pressure to that of MscS) ([4]; pH 7.5) | calcein efflux upon osmotic downshock [5] | Gating threshold (ratio of activation pressure to that of MscS) [6] | Growth after +MTSET-shock [7] | Growth −MTSET-shock [7]
1 | CCCCCCCC/C=C\CCCCCCCCCc1ccc[n+](CCCCCCCC/C=C\CCCCCCCC)c1.[Cl-] [SF-63, 1-(9′-cis-octadecenyl)-3-(10″-cis-nonadecenyl)pyridinium Chloride] | constant | resulted in gene expression in the lungs |  |  |  |  |  |  |  | 
2 | WT: wild-type E. coli MscL (6His construct) |  |  | ++++ | ++++ | 1.53 ± 0.185 | 1.56 ± 0.139 | greater efflux of calcein than liposomes without MscL | 1.64 ± 0.08 | ++++ | ++++
